Source: patent publication US10251892B2, “Bicyclic heterocycles as FGFR4 inhibitors” (Incyte Corporation, priority 2015, dated 2019)

Target: FGFR3 enzyme (Homo sapiens (Human), UniProt P22607)
Assay: FGFR Enzymatic Assay (peptide phosphorylation, FRET), FGFR3
Assay type: biochemical
Details: IC50 ratio showing FGFR3 selectivity; pre-incubated for 4 hours
Experimental: The inhibitor potency of the exemplified compounds was measured in an enzyme assay that measures peptide phosphorylation using FRET measurements to detect product formation. Inhibitors were serially diluted in DMSO and a volume of 0.5 μL was transferred to the wells of a 384-well plate.
GraphPad prism3 was used to analyze the data.

FGFR3 enzyme, sequence (P22607 23-806): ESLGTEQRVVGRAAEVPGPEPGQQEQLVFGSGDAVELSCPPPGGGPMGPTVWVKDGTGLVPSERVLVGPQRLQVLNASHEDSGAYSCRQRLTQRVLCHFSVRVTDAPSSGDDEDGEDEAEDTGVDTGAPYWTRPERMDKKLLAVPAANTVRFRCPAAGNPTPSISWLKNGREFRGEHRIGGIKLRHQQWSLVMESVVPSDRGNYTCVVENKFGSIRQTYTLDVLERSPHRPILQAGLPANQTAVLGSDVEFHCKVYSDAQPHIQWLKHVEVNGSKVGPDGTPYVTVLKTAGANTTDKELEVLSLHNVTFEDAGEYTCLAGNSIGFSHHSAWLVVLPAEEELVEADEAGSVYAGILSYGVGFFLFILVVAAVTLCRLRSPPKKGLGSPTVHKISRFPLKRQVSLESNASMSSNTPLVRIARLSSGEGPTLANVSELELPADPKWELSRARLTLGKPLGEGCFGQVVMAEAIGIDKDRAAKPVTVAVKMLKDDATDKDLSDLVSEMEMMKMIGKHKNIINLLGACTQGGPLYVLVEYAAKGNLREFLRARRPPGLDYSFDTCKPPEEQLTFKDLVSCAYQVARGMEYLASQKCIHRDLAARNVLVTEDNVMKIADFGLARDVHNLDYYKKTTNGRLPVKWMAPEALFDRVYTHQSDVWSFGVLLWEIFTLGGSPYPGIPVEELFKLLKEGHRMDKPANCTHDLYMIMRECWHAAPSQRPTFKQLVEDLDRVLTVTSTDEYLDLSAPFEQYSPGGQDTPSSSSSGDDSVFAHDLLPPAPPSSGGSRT

Structure (SMILES): COC(=O)Nc1ccc(N2C(=O)N(c3c(F)c(OC)cc(OC)c3F)Cc3cnc(-c4cn(C)nc4C)cc32)cc1 [Example 123, Methyl 4-(3-(2,6-difluoro-3,5-dimethoxyphenyl)-7-(1,3-dimethyl-1H-pyrazol-4-yl)-2-oxo-3,4-dihydropyrido[4,3-d]pyrimidin-1(2H)-yl)phenylcarbamate]
- FGFR1/FGFR3: >5
- FGFR4/FGFR3: >3

Structure (SMILES): COc1cc(OC)c(F)c(N2Cc3cnc(-c4cn(CC#N)nc4C)cc3C3(CC3)C2=O)c1F [Example 153, 2-(4-(2′-(2,6-difluoro-3,5-dimethoxyphenyl)-3′-oxo-2′,3′-dihydro-1′H-spiro[cyclopropane-1,4′-[2,7]naphthyridine]-6′-yl)-3-methyl-1H-pyrazol-1-yl)acetonitrile]
- FGFR1/FGFR3: >5
- FGFR4/FGFR3: >3

Structure (SMILES): COc1cc(OC)c(F)c(N2Cc3cnc(-c4cn(C)nc4C)cc3N(c3cc(F)cc(C#N)c3)C2=O)c1F [Example 78, 3-(3-(2,6-difluoro-3,5-dimethoxyphenyl)-7-(1,3-dimethyl-1H-pyrazol-4-yl)-2-oxo-3,4-dihydropyrido[4,3-d]pyrimidin-1(2H)-yl)-5-fluorobenzonitrile]
- FGFR1/FGFR3: >5
- FGFR4/FGFR3: >3

Structure (SMILES): CNS(=O)(=O)c1cccc(N2C(=O)N(c3c(F)c(OC)cc(OC)c3F)Cc3cnc(-c4cn(C)nc4C)cc32)c1 [Example 111, 3-(3-(2,6-difluoro-3,5-dimethoxyphenyl)-7-(1,3-dimethyl-1H-pyrazol-4-yl)-2-oxo-3,4-dihydropyrido[4,3-d]pyrimidin-1(2H)-yl)-N-methylbenzenesulfonamide]
- FGFR1/FGFR3: >3
- FGFR4/FGFR3: >5

Structure (SMILES): COc1cc(OC)c(F)c(N2Cc3cnc(-c4cn(CCC5CCNCC5)nc4C)cc3C3(CC3)C2=O)c1F [Example 165, 2′-(2,6-difluoro-3,5-dimethoxyphenyl)-6′-(3-methyl-1-(2-(piperidin-4-yl)ethyl)-1H-pyrazol-4-yl)-1′H-spiro[cyclopropane-1,4′-[2,7]naphthyridin]-3′(2′H)-one]
- FGFR1/FGFR3: >3
- FGFR4/FGFR3: >3

Structure (SMILES): COc1cc(OC)c(F)c(N2Cc3cnc(-c4cn(C)nc4C)cc3N(c3ccc(-c4nnc(C)o4)cc3)C2=O)c1F [Example 115, 3-(2,6-difluoro-3,5-dimethoxyphenyl)-7-(1,3-dimethyl-1H-pyrazol-4-yl)-1-(4-(5-methyl-1,3,4-oxadiazol-2-yl)phenyl)-3,4-dihydropyrido[4,3-d]pyrimidin-2(1H)-one]
- FGFR1/FGFR3: >3
- FGFR4/FGFR3: >5

Structure (SMILES): CCN1C(=O)N(c2c(F)c(OC)cc(OC)c2F)Cc2cnc(-c3ccc(N4CCOCC4)nc3)cc21 [Example 182, 3-(2,6-difluoro-3,5-dimethoxyphenyl)-1-ethyl-7-(6-morpholinopyridin-3-yl)-3,4-dihydropyrido[4,3-d]pyrimidin-2(1H)-one]
- FGFR1/FGFR3: >5
- FGFR4/FGFR3: >5

Structure (SMILES): COc1cc(OC)c(F)c(N2Cc3cnc(-c4cn(C)nc4C)cc3N(c3ccc4ncsc4c3)C2=O)c1F [Example 41, 1-(1,3-benzothiazol-6-yl)-3-(2,6-difluoro-3,5-dimethoxyphenyl)-7-(1,3-dimethyl-1H-pyrazol-4-yl)-3,4-dihydropyrido[4,3-d]pyrimidin-2(1H)-one]
- FGFR1/FGFR3: >1
- FGFR4/FGFR3: >5

Structure (SMILES): COc1cc(OC)c(F)c(N2Cc3cnc(-c4cn(C)nc4C)cc3N(Cc3ccccn3)C2=O)c1F [Example 94, 3-(2,6-difluoro-3,5-dimethoxyphenyl)-7-(1,3-dimethyl-1H-pyrazol-4-yl)-1-(pyridin-2-ylmethyl)-3,4-dihydropyrido[4,3-d]pyrimidin-2(1H)-one]
- FGFR1/FGFR3: >5
- FGFR4/FGFR3: >10

Structure (SMILES): COc1cc(OC)c(F)c(N2Cc3cnc(-c4cn(C)nc4C)cc3N(Cc3cc(C)on3)C2=O)c1F [Example 31, 3-(2,6-difluoro-3,5-dimethoxyphenyl)-7-(1,3-dimethyl-1H-pyrazol-4-yl)-1-((5-methylisoxazol-3-yl)methyl)-3,4-dihydropyrido[4,3-d]pyrimidin-2(1H)-one]
- FGFR1/FGFR3: >5
- FGFR4/FGFR3: >10

Structure (SMILES): COc1cc(OC)c(F)c(N2Cc3cnc(-c4cnn(CCN5CCOCC5)c4)cc3C3(CC3)C2=O)c1F [Example 157, 2′-(2,6-difluoro-3,5-dimethoxyphenyl)-6′-(1-(2-morpholinoethyl)-1H-pyrazol-4-yl)-1′H-spiro[cyclopropane-1,4′-[2,7]naphthyridin]-3′(2′H)-one]
- FGFR1/FGFR3: >5
- FGFR4/FGFR3: >3

Structure (SMILES): CCN1C(=O)N(c2c(F)c(OC)cc(OC)c2F)Cc2cnc(-c3ccc(C(=O)NC(C)C)nc3)cc21 [Example 178, 5-(3-(2,6-difluoro-3,5-dimethoxyphenyl)-1-ethyl-2-oxo-1,2,3,4-tetrahydropyrido[4,3-d]pyrimidin-7-yl)-N-isopropylpicolinamide]
- FGFR1/FGFR3: >5
- FGFR4/FGFR3: >5

Structure (SMILES): CCn1cc(N2C(=O)N(c3c(F)c(OC)cc(OC)c3F)Cc3cnc(-c4cn(C)nc4C)cc32)cn1 [Example 131, 3-(2,6-difluoro-3,5-dimethoxyphenyl)-7-(1,3-dimethyl-1H-pyrazol-4-yl)-1-(1-ethyl-1H-pyrazol-4-yl)-3,4-dihydropyrido[4,3-d]pyrimidin-2(1H)-one]
- FGFR1/FGFR3: >3
- FGFR4/FGFR3: >10

Structure (SMILES): COc1cc(OC)c(F)c(N2Cc3cnc(-c4cn(C)nc4C)cc3N(C3CCCC3)C2=O)c1F [Example 32, 1-cyclopentyl-3-(2,6-difluoro-3,5-dimethoxyphenyl)-7-(1,3-dimethyl-1H-pyrazol-4-yl)-3,4-dihydropyrido[4,3-d]pyrimidin-2(1H)-one]
- FGFR1/FGFR3: >1
- FGFR4/FGFR3: >5

Structure (SMILES): COc1cc(OC)c(F)c(N2Cc3cnc(-c4cn(C)nc4C)cc3N(c3ccc(F)c(F)c3)C2=O)c1F [Example 102, 3-(2,6-difluoro-3,5-dimethoxyphenyl)-1-(3,4-difluorophenyl)-7-(1,3-dimethyl-1H-pyrazol-4-yl)-3,4-dihydropyrido[4,3-d]pyrimidin-2(1H)-one]
- FGFR1/FGFR3: >3
- FGFR4/FGFR3: >10

Structure (SMILES): CCc1cc(CN2C(=O)N(c3c(F)c(OC)cc(OC)c3F)Cc3cnc(-c4cn(C)nc4C)cc32)no1 [Example 64, 3-(2,6-difluoro-3,5-dimethoxyphenyl)-7-(1,3-dimethyl-1H-pyrazol-4-yl)-1-((5-ethylisoxazol-3-yl)methyl)-3,4-dihydropyrido[4,3-d]pyrimidin-2(1H)-one]
- FGFR1/FGFR3: >10
- FGFR4/FGFR3: >10

Structure (SMILES): COc1cc(CN2C(=O)N(c3c(F)c(OC)cc(OC)c3F)Cc3cnc(-c4cn(C)nc4C)cc32)ccn1 [Example 58, 3-(2,6-difluoro-3,5-dimethoxyphenyl)-7-(1,3-dimethyl-1H-pyrazol-4-yl)-1-((2-methoxypyridin-4-yl)methyl)-3,4-dihydropyrido[4,3-d]pyrimidin-2(1H)-one]
- FGFR1/FGFR3: >10
- FGFR4/FGFR3: >10

Structure (SMILES): COc1cc(OC)c(F)c(N2Cc3cnc(-c4cn(C)nc4C)cc3N(c3cccc(F)c3)C2=O)c1F [Example 99, 3-(2,6-difluoro-3,5-dimethoxyphenyl)-7-(1,3-dimethyl-1H-pyrazol-4-yl)-1-(3-fluorophenyl)-3,4-dihydropyrido[4,3-d]pyrimidin-2(1H)-one]
- FGFR1/FGFR3: >5
- FGFR4/FGFR3: >5

Structure (SMILES): COc1cc(OC)c(F)c(N2Cc3cnc(-c4cnn(CC5CN(C(C)=O)C5)c4)cc3C3(CC3)C2=O)c1F [Example 167, 6′-(1-((1-acetylazetidin-3-yl)methyl)-1H-pyrazol-4-yl)-2′-(2,6-difluoro-3,5-dimethoxyphenyl)-1′H-spiro[cyclopropane-1,4′-[2,7]naphthyridin]-3′(2′H)-one]
- FGFR1/FGFR3: >3
- FGFR4/FGFR3: >3

Structure (SMILES): COc1cc(OC)c(F)c(N2Cc3cnc(-c4cn(C)nc4C)cc3N(c3cnccn3)C2=O)c1F [Example 70, 3-(2,6-difluoro-3,5-dimethoxyphenyl)-7-(1,3-dimethyl-1H-pyrazol-4-yl)-1-(pyrazin-2-yl)-3,4-dihydropyrido[4,3-d]pyrimidin-2(1H)-one]
- FGFR1/FGFR3: >5
- FGFR4/FGFR3: >5

Structure (SMILES): COc1cc(OC)c(F)c(N2Cc3cnc(-c4cn(C)nc4C)cc3N(c3cccnc3)C2=O)c1F [Example 86, 3-(2,6-difluoro-3,5-dimethoxyphenyl)-7-(1,3-dimethyl-1H-pyrazol-4-yl)-1-(pyridin-3-yl)-3,4-dihydropyrido[4,3-d]pyrimidin-2(1H)-one]
- FGFR1/FGFR3: >5
- FGFR4/FGFR3: >10

Structure (SMILES): COc1cc(OC)c(F)c(N2Cc3cnc(-c4ccccc4)cc3C3(CC3)C2=O)c1F [Example 17, 2′-(2,6-difluoro-3,5-dimethoxyphenyl)-6′-phenyl-1′H-spiro[cyclopropane-1,4′-[2,7]naphthyridin]-3′(2′H)-one]
- FGFR1/FGFR3: >10

Structure (SMILES): COc1cc(OC)c(F)c(N2Cc3cnc(-c4cn(C)nc4C)cc3N(Cc3cncnc3)C2=O)c1F [Example 84, 3-(2,6-difluoro-3,5-dimethoxyphenyl)-7-(1,3-dimethyl-1H-pyrazol-4-yl)-1-(pyrimidin-5-ylmethyl)-3,4-dihydropyrido[4,3-d]pyrimidin-2(1H)-one]
- FGFR1/FGFR3: >5
- FGFR4/FGFR3: >5

Structure (SMILES): COc1cc(OC)c(F)c(N2Cc3cnc(-c4cn(C)nc4C)cc3N(Cc3ccc4c(c3)OCCO4)C2=O)c1F [Example 38, 3-(2,6-difluoro-3,5-dimethoxyphenyl)-1-((2,3-dihydrobenzo[b][1,4]dioxin-6-yl)methyl)-7-(1,3-dimethyl-1H-pyrazol-4-yl)-3,4-dihydropyrido[4,3-d]pyrimidin-2(1H)-one]
- FGFR1/FGFR3: >5
- FGFR4/FGFR3: >5

Structure (SMILES): CCNC(=O)c1ccc(-c2cc3c(cn2)CN(c2c(F)c(OC)cc(OC)c2F)C(=O)N3CC)cn1 [Example 175, 5-(3-(2,6-difluoro-3,5-dimethoxyphenyl)-1-ethyl-2-oxo-1,2,3,4-tetrahydropyrido[4,3-d]pyrimidin-7-yl)-N-ethylpicolinamide]
- FGFR1/FGFR3: >10
- FGFR4/FGFR3: >5
